Test results from PubChem BioAssay (NCI).
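Results reflect a 48-hour exposure of cells in 96-well plates to compound at five concentrations. At the GI50, growth is halved. TGI is the concentration that stops growth completely.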

What was measured:
Test in all cases: NCI anticancer screen, dose series, 48 h
OVCAR-4 ovarian = tested on: OVCAR-4 ovarian
MALME-3M melanoma = tested on: MALME-3M melanoma
UACC-257 melanoma = tested on: UACC-257 melanoma
COLO 205 colon = tested on: COLO 205 colon
HS 578T breast = tested on: HS 578T breast
EKVX NSCLC = tested on: EKVX NSCLC
NCI-H522 lung = tested on: NCI-H522 lung
SR leukemia = tested on: SR leukemia
SF-295 CNS = tested on: SF-295 CNS
BT-549 breast = tested on: BT-549 breast
A549 NSCLC = tested on: A549 NSCLC
786-0 renal = tested on: 786-0 renal
A498 renal = tested on: A498 renal
NCI-H460 lung = tested on: NCI-H460 lung
ACHN renal = tested on: ACHN renal
UACC-62 melanoma = tested on: UACC-62 melanoma
NCI-H226 lung = tested on: NCI-H226 lung
RPMI-8226 leukemia = tested on: RPMI-8226 leukemia
OVCAR-8 ovarian = tested on: OVCAR-8 ovarian
LOX IMVI melanoma = tested on: LOX IMVI melanoma
TK-10 renal = tested on: TK-10 renal
NCI-H23 lung = tested on: NCI-H23 lung
MDA-MB-231 breast = tested on: MDA-MB-231 breast
SK-OV-3 ovarian = tested on: SK-OV-3 ovarian
OVCAR-5 ovarian = tested on: OVCAR-5 ovarian
CCRF-CEM leukemia = tested on: CCRF-CEM leukemia
KM12 colon = tested on: KM12 colon
HL-60(TB) leukemia = tested on: HL-60(TB) leukemia
SN12C renal = tested on: SN12C renal
MOLT-4 leukemia = tested on: MOLT-4 leukemia
DU-145 prostate = tested on: DU-145 prostate
SF-268 CNS = tested on: SF-268 CNS
UO-31 renal = tested on: UO-31 renal
IGROV1 ovarian = tested on: IGROV1 ovarian
U251 CNS = tested on: U251 CNS
NCI/ADR-RES ovarian = tested on: NCI/ADR-RES ovarian
PC-3 prostate = tested on: PC-3 prostate
RXF 393 renal = tested on: RXF 393 renal
CAKI-1 renal = tested on: CAKI-1 renal
HOP-92 NSCLC = tested on: HOP-92 NSCLC
MDA-MB-435 = tested on: MDA-MB-435
HT29 colon = tested on: HT29 colon
HCT-116 colon = tested on: HCT-116 colon
T-47D breast = tested on: T-47D breast
SK-MEL-28 melanoma = tested on: SK-MEL-28 melanoma
SNB-75 CNS = tested on: SNB-75 CNS
K-562 leukemia = tested on: K-562 leukemia
SF-539 CNS = tested on: SF-539 CNS
HOP-62 NSCLC = tested on: HOP-62 NSCLC
M14 melanoma = tested on: M14 melanoma
SNB-19 CNS = tested on: SNB-19 CNS
SK-MEL-5 melanoma = tested on: SK-MEL-5 melanoma
SW-620 colon = tested on: SW-620 colon
OVCAR-3 ovarian = tested on: OVCAR-3 ovarian
HCT-15 colon = tested on: HCT-15 colon
HCC-2998 colon = tested on: HCC-2998 colon
SK-MEL-2 melanoma = tested on: SK-MEL-2 melanoma
MCF7 breast = tested on: MCF7 breast

## O=C1c2c(c3c4cc(Br)ccc4[nH]c3c3ccc4ccccc4c23)C(=O)N1CCN1CCNCC1
OVCAR-4 ovarian
  GI50: 12.3 µM
  TGI: 33.9 µM
MALME-3M melanoma
  GI50: 14.3 µM
  TGI: 36.3 µM
UACC-257 melanoma
  GI50: 12.9 µM
  TGI: 28.4 µM
COLO 205 colon
  GI50: 6.51 µM
  TGI: 27.7 µM
HS 578T breast
  GI50: 17.9 µM
  TGI: 52.4 µM
EKVX NSCLC
  GI50: 1.98 µM
  TGI: 4.96 µM
NCI-H522 lung
  GI50: 1.67 µM
  TGI: 7.46 µM
SR leukemia
  GI50: 0.507 µM
  TGI: 2.79 µM
SF-295 CNS
  GI50: 13.9 µM
  TGI: 32.9 µM
BT-549 breast
  GI50: 13.1 µM
  TGI: 30.7 µM
A549 NSCLC
  GI50: 2.6 µM
  TGI: 9.13 µM
786-0 renal
  GI50: 2.94 µM
  TGI: 9.44 µM
A498 renal
  GI50: 16.1 µM
  TGI: 29.8 µM
NCI-H460 lung
  GI50: 2.38 µM
  TGI: 10.2 µM
ACHN renal
  GI50: 11.1 µM
  TGI: 27.4 µM
UACC-62 melanoma
  GI50: 12.8 µM
  TGI: 31.3 µM
NCI-H226 lung
  GI50: 10.8 µM
  TGI: 39.5 µM
RPMI-8226 leukemia
  GI50: 2.19 µM
  TGI: 5.26 µM
OVCAR-8 ovarian
  GI50: 1.96 µM
  TGI: 5 µM
LOX IMVI melanoma
  GI50: 2.06 µM
  TGI: 5.3 µM
TK-10 renal
  GI50: 19.8 µM
  TGI: 38.1 µM
NCI-H23 lung
  GI50: 2.96 µM
  TGI: 12.7 µM
MDA-MB-231 breast
  GI50: 2.34 µM
  TGI: 6.32 µM
SK-OV-3 ovarian
  GI50: 16.2 µM
  TGI: 30.8 µM
OVCAR-5 ovarian
  GI50: 2.88 µM
  TGI: 9.14 µM
CCRF-CEM leukemia
  GI50: 0.947 µM
  TGI: 6.8 µM
KM12 colon
  GI50: 3.21 µM
  TGI: 11.6 µM
HL-60(TB) leukemia
  GI50: 6.78 µM
  TGI: 26 µM
SN12C renal
  GI50: 13.5 µM
  TGI: 36.6 µM
MOLT-4 leukemia
  GI50: 1.04 µM
  TGI: 4.14 µM
DU-145 prostate
  GI50: 2.09 µM
  TGI: 4.53 µM
SF-268 CNS
  GI50: 12.3 µM
  TGI: 36.3 µM
UO-31 renal
  GI50: 11.2 µM
  TGI: 27.2 µM
IGROV1 ovarian
  GI50: 11.8 µM
  TGI: 33.7 µM
U251 CNS
  GI50: 1.49 µM
  TGI: 2.86 µM
NCI/ADR-RES ovarian
  GI50: 3.66 µM
  TGI: 26.7 µM
PC-3 prostate
  GI50: 2.91 µM
  TGI: 11 µM
RXF 393 renal
  GI50: 6.97 µM
  TGI: 23.4 µM
CAKI-1 renal
  GI50: 10.5 µM
  TGI: 24.6 µM
HOP-92 NSCLC
  GI50: 14.4 µM
  TGI: 28.7 µM
MDA-MB-435
  GI50: 3.12 µM
  TGI: 10.8 µM
HT29 colon
  GI50: 1.64 µM
  TGI: 3.11 µM
HCT-116 colon
  GI50: 1.73 µM
  TGI: 3.13 µM
T-47D breast
  GI50: 4.3 µM
  TGI: 26 µM
SK-MEL-28 melanoma
  GI50: 15.7 µM
  TGI: 35.1 µM
SNB-75 CNS
  GI50: 18.3 µM
  TGI: 35.5 µM
K-562 leukemia
  GI50: 1.28 µM
  TGI: 3.05 µM
SF-539 CNS
  GI50: 1.92 µM
  TGI: 3.82 µM
HOP-62 NSCLC
  GI50: 6.28 µM
  TGI: 26.9 µM
M14 melanoma
  GI50: 10.7 µM
  TGI: 25.7 µM
SNB-19 CNS
  GI50: 1.8 µM
  TGI: 3.79 µM
SK-MEL-5 melanoma
  GI50: 18.1 µM
  TGI: 38 µM

## O=C(Nc1ccc(Cl)cc1)Nc1nc2ccc([N+](=O)[O-])cc2s1
OVCAR-4 ovarian
  GI50: 0.573 µM
  TGI: 3.13 µM
MALME-3M melanoma
  GI50: 0.467 µM
  TGI: 1.87 µM
UACC-257 melanoma
  GI50: 0.639 µM
  TGI: 2.79 µM
COLO 205 colon
  GI50: 1.7 µM
  TGI: 3.29 µM
HS 578T breast
  GI50: 1.17 µM
  TGI: 3.87 µM
SW-620 colon
  GI50: 0.84 µM
  TGI: 2.34 µM
EKVX NSCLC
  GI50: 0.886 µM
  TGI: 2.66 µM
NCI-H522 lung
  GI50: 0.378 µM
  TGI: 2.89 µM
SR leukemia
  GI50: 0.566 µM
  TGI: 2.28 µM
SF-295 CNS
  GI50: 0.728 µM
  TGI: 2.12 µM
BT-549 breast
  GI50: 0.593 µM
  TGI: 1.76 µM
OVCAR-3 ovarian
  GI50: 0.435 µM
  TGI: 1.59 µM
A549 NSCLC
  GI50: 0.837 µM
  TGI: 3.43 µM
786-0 renal
  GI50: 0.776 µM
  TGI: 2.39 µM
A498 renal
  GI50: 0.275 µM
  TGI: 0.996 µM
NCI-H460 lung
  GI50: 0.468 µM
  TGI: 1.7 µM
ACHN renal
  GI50: 0.751 µM
  TGI: 2.29 µM
UACC-62 melanoma
  GI50: 0.485 µM
  TGI: 2.14 µM
NCI-H226 lung
  GI50: 0.777 µM
  TGI: 2.46 µM
OVCAR-8 ovarian
  GI50: 1.27 µM
  TGI: 4.7 µM
LOX IMVI melanoma
  GI50: 0.727 µM
  TGI: 2.06 µM
TK-10 renal
  GI50: 0.889 µM
  TGI: 4.32 µM
NCI-H23 lung
  GI50: 0.332 µM
  TGI: 1.26 µM
MDA-MB-231 breast
  GI50: 1.12 µM
  TGI: 2.92 µM
HCT-15 colon
  GI50: 0.675 µM
  TGI: 2.11 µM
HCC-2998 colon
  GI50: 0.59 µM
  TGI: 2.08 µM
SK-OV-3 ovarian
  GI50: 0.843 µM
  TGI: 4.51 µM
OVCAR-5 ovarian
  GI50: 1.85 µM
  TGI: 4.45 µM
CCRF-CEM leukemia
  GI50: 0.393 µM
  TGI: 1.85 µM
KM12 colon
  GI50: 0.642 µM
  TGI: 2.31 µM
HL-60(TB) leukemia
  GI50: 0.604 µM
  TGI: 2.02 µM
SN12C renal
  GI50: 0.647 µM
  TGI: 2.59 µM
MOLT-4 leukemia
  GI50: 0.438 µM
  TGI: 1.98 µM
DU-145 prostate
  GI50: 1.11 µM
  TGI: 5.15 µM
SF-268 CNS
  GI50: 1.09 µM
  TGI: 3.46 µM
UO-31 renal
  GI50: 0.545 µM
  TGI: 2.45 µM
IGROV1 ovarian
  GI50: 1.08 µM
  TGI: 2.68 µM
U251 CNS
  GI50: 0.606 µM
  TGI: 2.57 µM
NCI/ADR-RES ovarian
  GI50: 0.88 µM
  TGI: 2.28 µM
PC-3 prostate
  GI50: 0.38 µM
  TGI: 1.63 µM
RXF 393 renal
  GI50: 0.587 µM
  TGI: 1.94 µM
CAKI-1 renal
  GI50: 0.653 µM
  TGI: 2.51 µM
HOP-92 NSCLC
  GI50: 0.187 µM
  TGI: 0.628 µM
MDA-MB-435
  GI50: 0.729 µM
  TGI: 2.2 µM
HT29 colon
  GI50: 2.57 µM
  TGI: 7.14 µM
HCT-116 colon
  GI50: 0.346 µM
  TGI: 1.27 µM
T-47D breast
  GI50: 0.308 µM
  TGI: 1.28 µM
SK-MEL-28 melanoma
  GI50: 0.663 µM
  TGI: 2.02 µM
SNB-75 CNS
  GI50: 0.952 µM
  TGI: 3.51 µM
K-562 leukemia
  GI50: 0.375 µM
  TGI: 1.55 µM
SF-539 CNS
  GI50: 0.915 µM
  TGI: 2.35 µM
HOP-62 NSCLC
  GI50: 1.19 µM
  TGI: 3.13 µM
SK-MEL-2 melanoma
  GI50: 0.554 µM
  TGI: 2.32 µM
M14 melanoma
  GI50: 0.815 µM
  TGI: 2.24 µM
SNB-19 CNS
  GI50: 0.735 µM
  TGI: 2.75 µM
MCF7 breast
  GI50: 0.46 µM
  TGI: 1.91 µM
SK-MEL-5 melanoma
  GI50: 0.365 µM
  TGI: 1.33 µM
